Data taken from ChEMBL document CHEMBL5104202, “Structure-Uptake Relationship Studies of Oxazolidinones in Gram-Negative ESKAPE Pathogens” (J Med Chem, 2022).

Tests used:
Format in all cases: functional, organism-based
Pseudomonas aeruginosa [1] = experiment: Antibacterial activity against efflux pump lacking Pseudomonas aeruginosa assessed as inhibition of bacterial growth
Escherichia coli [2] = experiment: Antibacterial activity against efflux pump lacking/recombinant OM pore producing Escherichia coli assessed as inhibition of bacterial growth
Acinetobacter baumannii [3] = experiment: Antibacterial activity against wild type Acinetobacter baumannii assessed as inhibition of bacterial growth
Acinetobacter baumannii [4] = experiment: Antibacterial activity against recombinant OM pore producing Acinetobacter baumannii assessed as inhibition of bacterial growth
Pseudomonas aeruginosa [5] = experiment: Antibacterial activity against efflux pump lacking/recombinant OM pore producing Pseudomonas aeruginosa assessed as inhibition of bacterial growth
Escherichia coli [6] = experiment: Antibacterial activity against recombinant OM pore producing Escherichia coli assessed as inhibition of bacterial growth
Escherichia coli [7] = experiment: Antibacterial activity against efflux pump lacking Escherichia coli assessed as inhibition of bacterial growth
Pseudomonas aeruginosa [8] = experiment: Antibacterial activity against wild type Pseudomonas aeruginosa assessed as inhibition of bacterial growth
Acinetobacter baumannii [9] = experiment: Antibacterial activity against efflux pump lacking Acinetobacter baumannii assessed as inhibition of bacterial growth
Acinetobacter baumannii [10] = experiment: Antibacterial activity against efflux pump lacking/recombinant OM pore producing Acinetobacter baumannii assessed as inhibition of bacterial growth
Pseudomonas aeruginosa [11] = experiment: Antibacterial activity against recombinant OM pore producing Pseudomonas aeruginosa assessed as inhibition of bacterial growth
Escherichia coli [12] = experiment: Antibacterial activity against wild type Escherichia coli assessed as inhibition of bacterial growth

Compound	IC50 (Pseudomonas aeruginosa [1])	IC50 (Escherichia coli [2])	IC50 (Acinetobacter baumannii [3])	IC50 (Acinetobacter baumannii [4])	IC50 (Pseudomonas aeruginosa [5])	IC50 (Escherichia coli [6])	IC50 (Escherichia coli [7])	IC50 (Pseudomonas aeruginosa [8])	IC50 (Acinetobacter baumannii [9])	IC50 (Acinetobacter baumannii [10])	IC50 (Pseudomonas aeruginosa [11])	IC50 (Escherichia coli [12])
CC(C)c1ccc(-c2ccc(N3C[C@H](CO)OC3=O)cc2F)c(C(C)C)c1	49 µM	6.6 µM	> 100 µM	77.9 µM	22.3 µM	20.4 µM	15.9 µM	> 100 µM	17.3 µM	8.2 µM	> 100 µM	99.1 µM
C[n+]1ccc2cc(-c3ccc(N4C[C@H](CO)OC4=O)cc3F)ccc2c1	> 100 µM	11.4 µM	> 100 µM	20.1 µM	> 100 µM	30 µM	4 µM	> 100 µM	29.7 µM	27.9 µM	> 100 µM	63.6 µM
NC(=S)Nc1cccc(C#Cc2ccc(N3C[C@H](CO)OC3=O)cc2F)c1	> 100 µM	64.5 µM	> 100 µM	> 100 µM	> 100 µM	> 100 µM	85 µM	> 100 µM	> 100 µM	> 100 µM	> 100 µM	> 100 µM
COc1ccc(CNC(=O)OC(C)(C)C)cc1OCC#Cc1ccc(N2C[C@H](CO)OC2=O)cc1F	> 100 µM	44.4 µM	> 100 µM	42.4 µM	46.9 µM	> 100 µM	42.9 µM	> 100 µM	72.2 µM	28.7 µM	> 100 µM	> 100 µM
CC[n+]1ccc(-c2ccc(N3C[C@H](CO)OC3=O)cc2F)cc1	57.4 µM	15.9 µM	> 100 µM	> 100 µM	42.3 µM	36 µM	13.7 µM	> 100 µM	> 100 µM	38.5 µM	> 100 µM	43.8 µM
CC(C(=O)NCC#Cc1ccc(N2C[C@H](CO)OC2=O)cc1F)N1CCNCC1 (stereo not given in full)	> 100 µM	> 100 µM	> 100 µM	> 100 µM	> 100 µM	> 100 µM	> 100 µM	> 100 µM	> 100 µM	> 100 µM	> 100 µM	> 100 µM
COC(=O)c1cncc(-c2ccc(N3C[C@H](CO)OC3=O)cc2F)c1	32.9 µM	2.2 µM	83.2 µM	83.2 µM	38.7 µM	4.7 µM	2.7 µM	> 100 µM	12.1 µM	12.1 µM	> 100 µM	> 100 µM
CSCC#Cc1ccc(N2C[C@H](CO)OC2=O)cc1F	> 100 µM	47.8 µM	> 100 µM	> 100 µM	> 100 µM	35.1 µM	65.9 µM	> 100 µM	> 100 µM	> 100 µM	> 100 µM	94.9 µM
O=C(O)CCCC#Cc1ccc(N2C[C@H](CO)OC2=O)cc1F	> 100 µM	> 100 µM	> 100 µM	> 100 µM	> 100 µM	> 100 µM	> 100 µM	> 100 µM	> 100 µM	> 100 µM	> 100 µM	> 100 µM
CCOC(=O)C1CCN(CC#Cc2ccc(N3C[C@H](CO)OC3=O)cc2F)CC1	> 100 µM	> 100 µM	> 100 µM	> 100 µM	> 100 µM	> 100 µM	> 100 µM	> 100 µM	> 100 µM	> 100 µM	> 100 µM	> 100 µM
O=C1O[C@@H](CO)CN1c1ccc(C#CCO)c(F)c1	> 100 µM	43.6 µM	> 100 µM	> 100 µM	> 100 µM	> 100 µM	84 µM	> 100 µM	> 100 µM	> 100 µM	> 100 µM	> 100 µM
C[n+]1ccccc1-c1ccc(-c2ccc(N3C[C@H](CO)OC3=O)cc2F)cc1	8.4 µM	4.4 µM	> 100 µM	13.3 µM	1.2 µM	13.2 µM	3.1 µM	> 100 µM	20.4 µM	10.2 µM	15.9 µM	72.6 µM
CCOC(=O)C(C)(C)CC#Cc1ccc(N2C[C@H](CO)OC2=O)cc1F	> 100 µM	21.9 µM	> 100 µM	60.3 µM	30.1 µM	65.3 µM	17.8 µM	> 100 µM	44 µM	30.3 µM	> 100 µM	> 100 µM
C[n+]1ccc2ccc(-c3ccc(N4C[C@H](CO)OC4=O)cc3F)cc2c1	> 100 µM	9.6 µM	> 100 µM	27.4 µM	> 100 µM	21 µM	5.6 µM	> 100 µM	48.6 µM	9.4 µM	> 100 µM	> 100 µM
CC(=O)OCC#Cc1ccc(N2C[C@H](CO)OC2=O)cc1F	> 100 µM	39.7 µM	> 100 µM	> 100 µM	> 100 µM	44.4 µM	72.4 µM	> 100 µM	> 100 µM	> 100 µM	> 100 µM	> 100 µM
COC(=O)c1ccccc1-c1ccc(N2C[C@H](CO)OC2=O)cc1F	> 100 µM	39.7 µM	> 100 µM	> 100 µM	> 100 µM	61.5 µM	64.6 µM	> 100 µM	> 100 µM	> 100 µM	> 100 µM	96 µM
CC(=O)N1CCN(CC#Cc2ccc(N3C[C@H](CO)OC3=O)cc2F)CC1	> 100 µM	> 100 µM	> 100 µM	> 100 µM	> 100 µM	> 100 µM	> 100 µM	> 100 µM	> 100 µM	> 100 µM	> 100 µM	> 100 µM
N=C(N)NCc1ccc(-c2ccc(N3C[C@H](CO)OC3=O)cc2F)cc1	12 µM	55.7 µM	> 100 µM	65.9 µM	25.7 µM	56.1 µM	63.8 µM	> 100 µM	67.8 µM	32.5 µM	> 100 µM	> 100 µM
O=C1O[C@@H](CO)CN1c1ccc(-c2cc[n+](Cc3ccccc3)cc2)c(F)c1	4.6 µM	15.6 µM	> 100 µM	15.6 µM	1.1 µM	23.3 µM	15.5 µM	> 100 µM	23.4 µM	13 µM	41.7 µM	51.6 µM
CC(C)(C)OC(=O)N[C@@H](Cc1cccc(-c2ccc(N3C[C@H](CO)OC3=O)cc2F)c1)C(=O)O	> 100 µM	> 100 µM	> 100 µM	> 100 µM	> 100 µM	> 100 µM	> 100 µM	> 100 µM	> 100 µM	> 100 µM	> 100 µM	> 100 µM
